Reference: US20120237937A1, “METHODS TO DETECT CANCER IN ANIMALS” (UNIVERSITY OF LOUISVILLE RESEARCH FOUNDATION, INC., priority 2009, published 2012)
Structures can show the parent of a compound that is named as a salt.

Experiments:
[1] = GC-MS quantification of total and 13C-enriched metabolites in paired normal and cancerous lung tissues
[2] = NMR 13C-isotopomer profiling of TCA extracts of paired non-cancerous and cancerous lung tissues; conditions: for relative 13C abundance (HSQC peak volume normalized to total succinate concentration): patients #6-10; for % enrichment: human, in vivo
Method: Lung cancer patients were recruited based on the criteria of surgical eligibility and no history of diabetes. Each patient was consented in accordance with the U.S. HIPAA regulations. The following patient protocol was approved by the Internal Review Board at the University of Louisville. Ten grams uniformly ^13C labeled glucose ([U-^13C]-Glc or ^13C6-Glc or ^13C6-Glucose) in sterile saline solution were infused i.v. over a 30 min time period into each patient in the pre-op room approximately 3 or 12 hr prior to resection. Whole blood samples were collected into a vacutainer containing the anticoagulant K3EDTA or K3-EDTA before and after [U-^13C]-Glc infusion as well as after the surgery. Additional blood samples were collected 3 and 12 hr after the [U-^13C]-Glc infusion for the 12 hr treatment cases. […] The blood samples were placed on ice immediately after collection and centrifuged at 4° C. at 3,500×g for 15 min to recover the plasma fraction. All blood samples were aliquoted and flash-frozen in liquid N2 within 30 min of collection. Potassium EDTA was used as an anti-coagulant to minimize metabolic artifacts associated with anti-coagulation; it also served to remove the influence of interfering cations such as paramagnetic Fe^3+ and Cu^2+ for NMR analysis.
All timings from first incision to cutting arteries and veins to the lung were recorded so that the period of ischemia could be determined immediately after tissue resection, excess blood was blotted from the tissue, and small pieces of non-cancerous and tumor tissue were cut by the surgeon and freeze-clamped in liquid N2 within 5 minutes of removal from the chest cavity. The freezing process arrested metabolic changes almost instantaneously. […] Non-cancerous tissue was removed at least 2 cm from the tumor margin and certified to be tumor-free by trained pathologists. Subsequent pathological evaluation also confirmed tumor status and provided the tumor stage. All samples were stored at −80° C. until further processing for analysis.
Frozen tissue samples were pulverized into <10 μm particles in liquid N2 using a Spex freezer mill (Spex CertiPrep, Inc., Metuchen, N.J.) to maximize efficiency for subsequent extraction while maintaining biochemical integrity. An aliquot of the frozen powder was lyophilized before extraction for metabolites.
Water-soluble or polar metabolites were extracted from lyophilized tissue powders (4-48 mg) in ice-cold 10% trichloroacetic acid (TCA) (v/w minimum 40/1) while leaving proteins, nucleic acids, and polysaccharides behind, as described previously (Kim et al. Antioxidants & Redox Signaling 2001, 3:361-373). The extraction was performed twice for quantitative recovery. An aliquot (150 μl) of plasma samples were made to final 10% TCA concentration to precipitate proteins and recover metabolites in the supernatant. TCA was then removed from tissue or plasma extracts by lyophilization. The dry pellet was dissolved in nanopure water and two small aliquots were lyophilized for silylation and GC-MS analysis while the remaining bulk was passed through a Chelex 100 resin column (Bio-Rad Laboratories, Inc., Hercules, Calif.) to neutralize and remove interfering multivalent cations for NMR analysis.
The ^1H reference standard, DSS (2,2-Dimethyl-2-silapentane-5-sulfonate sodium salt) was added (30 or 50 nmoles) to the TCA extracts of tissue or plasma samples, respectively. […]

[3] = GC-MS analysis of 13C-mass isotopomers of lactate in plasma after [U-13C]-glucose infusion; type: in vivo, human; conditions: in excess of natural abundance
[4] = Isotopic enrichment in SCID mouse tissue lactate and glucose by 1D 1H NMR; type: in vivo; conditions: SCID, mouse, in vivo, 15 min
Method: A 20% solution of glucose in normal saline was sterile-filtered. 100 μL of this solution, or a 1:10 dilution (2%) were injected into the tail vein of a restrained mouse without anesthesia.
Mice were sacrificed at different times post glucose injection, and the following organs were dissected sequentially: lung, heart, liver, kidney, brain, spleen, and thigh muscle. Dissected tissue was flash frozen in liquid N2 within 1 minute of killing the animal.
Frozen tissues were ground in liquid N2 to <10 μm particles in a 6750 Freezer/Mill (Retsch, Inc., Newtown, Pa.) and extracted for soluble and lipidic metabolites as follows. Up to 20 mg of frozen tissue powder in 15 ml polypropylene conical centrifuge tube (Sarstedt, Newton, N.C.) containing 3 mm diameter glass beads was vigorously mixed with 2 ml of cold acetonitrile (mass spectrometry grade, stored at −20° C.) to denature proteins, followed by addition of 1.5 ml nanopure water, and 1 ml HPLC-grade chloroform (Fisher Scientific). The mixture was shaken vigorously until achieving a milky consistency followed by centrifugation at 3,000 g for 20 minutes at 4° C. to separate the polar (top), lipidic (bottom), and tissue debris layers (interface). The polar and lipidic layers were recovered sequentially and the remaining cell debris was extracted again with 0.5 ml chloroform:methanol:butylated hydroxytoluene (BHT) (2:1:1 mM) which was pooled with the lipidic fraction. All three fractions were vacuum-dried in a speedvac device (Vacufuge, Eppendorf, New York, N.Y.) and/or by lyophylization. The dry weight of tissue debris was obtained for normalization of metabolite content. The polar extracts were redissolved in 100% D2O containing 30 nmol perdeuterated DSS (2,2-dimethyl-2-silapentane-5-sulfonate, Cambridge Isotope Laboratories, Andover, Mass.) as internal chemical shift and concentration reference for NMR measurement.
NMR spectra were recorded at 14.1 T on a Varian Inova spectrometer equipped with a 5 mm inverse triple resonance cold probe, at 20° C. 1D NMR spectra were recorded with an acquisition time of 2 s and a recycle time of 5 sec. Concentrations of metabolites and ^13C incorporation were determined by peak integration of the ^1H NMR spectra referenced to the DSS methyl groups, with correction for differential relaxation, as previously described (See, Lane et al. (2008) Biophysical Tools for Biologists. 84: 541-588; Fan et al. (2008) Progress in NMR Spectroscopy 52: 69-117; Lane et al. (2007) Metabolomics 3: 79-86.). ^1H Spectra were typically processed with zero filling to 131 k points, and apodized with an unshifted Gaussian and a 0.5 Hz line broadening exponential.
The same extracts from FIG. 9 were analyzed by NMR to complement the GC-MS analysis. The ^13C enrichment into glucose/glucose-6-phosphate and lactate was determined by 1D ^1H NMR. The enrichments at 15 and 30 minutes post infusion were substantial in all tissues, and peak lactate enrichments differed according to the metabolic activity or glucose uptake rates of the different tissues (Table 7).
Lac measured at C3, G1c measured at C1α by NMR

[5] = patient #6 (sqC, grade II), cancer tissue
[6] = patient #6 (sqC, grade II), normal tissue
[7] = patient #7 (adenoC, grade II), cancer tissue
[8] = patient #7 (adenoC, grade II), normal tissue
[9] = patient #8 (sqC, grade II-III), cancer tissue
[10] = patient #8 (sqC, grade II-III), normal tissue
[11] = patient #9 (sqC, grade II), cancer tissue
[12] = patient #9 (sqC, grade II), normal tissue
[13] = patient #10 (sqC, grade III), cancer tissue
[14] = patient #10 (sqC, grade III), normal tissue

SMILES	metabolite content of lung tissue [1, 5] [μmole/g dry weight]	metabolite content of lung tissue [1, 6] [μmole/g dry weight]	metabolite content of lung tissue [1, 7] [μmole/g dry weight]	metabolite content of lung tissue [1, 8] [μmole/g dry weight]	metabolite content of lung tissue [1, 9] [μmole/g dry weight]	metabolite content of lung tissue [1, 10] [μmole/g dry weight]	metabolite content of lung tissue [1, 11] [μmole/g dry weight]	metabolite content of lung tissue [1, 12] [μmole/g dry weight]	metabolite content of lung tissue [1, 13] [μmole/g dry weight]	metabolite content of lung tissue [1, 14] [μmole/g dry weight]	relative 13C abundance (HSQC peak volume normalized to total succinate concentration) ([2]; non-cancerous tissues)	relative 13C abundance (HSQC peak volume normalized to total succinate concentration) ([2]; tumor tissues)	Percentage distribution of 13C-mass isotopomers of lactate in plasma ([3]; patient #6, [U-13C]-glucose 3 h) [%]	Percentage distribution of 13C-mass isotopomers of lactate in plasma ([3]; patient #7, [U-13C]-glucose 3 h) [%]	Percentage distribution of 13C-mass isotopomers of lactate in plasma ([3]; patient #8, [U-13C]-glucose 3 h) [%]	Percentage distribution of 13C-mass isotopomers of lactate in plasma ([3]; patient #9, [U-13C]-glucose 3 h) [%]	Percentage distribution of 13C-mass isotopomers of lactate in plasma ([3]; patient #10, [U-13C]-glucose 3 h) [%]	% enrichment [2] [%]	% 13C isotopic enrichment in tissue [4] [%]
NC(=O)CC[C@H](N)C(=O)O [Total Gln, glutamine]	7.68	0.56	1.02	1.41	1.32	0.64	2.71	0.74	2.99	0.79									
O=C(O)[13CH2][13CH2]C(=O)O [C-2,3-succinate]											0.6±0.7	3.6±1.2							
O=C(O)CCC(=O)O [Total Succ, succinate]	1.34	0.17	0.70	0.50	1.84	0.89	1.59	0.64	3.13	1.14									
[13CH3][13CH](O)[13C](=O)O (stereo not shown) [[U-^13C]-Lactate, uniformly ^13C labeled lactate]													1.89	4.84	3.31	3.47	6.37		
C[C@H](N)C(=O)O [Total Ala, alanine]	15.76	4.67	6.44	6.25	9.28	4.97	15.08	5.14	27.34	5.42								≤ 15	16
N[C@@H](CCC(=O)O)C(=O)O [Total Glu, glutamate]	4.80	0.24	2.97	2.96	3.25	1.88	4.78	1.91	3.28	1.82									
N[C@@H](CC(=O)O)C(=O)O [Total Asp, aspartate]	4.27	1.32	3.09	3.83	1.51	2.67	4.78	1.94	1.66	2.27								< 8	
O=C(O)CC(O)(CC(=O)O)C(=O)O [Total Cit, citrate]	1.32	0.60	1.18	1.21	1.56	1.28	1.53	0.77	1.37	0.74									
